Measured values published in US20170094972A1, “Compounds and Compositions Having Knock-Down Activity Against Insect Pests” (priority 2015, published 2017).
Where two headings read alike, the source gives them in different places.

Tests used:
Assay type in all cases: in vivo
Aedes aegypti = test: 12 well plate knockdown test; conditions: 1 h, read-out: Aedes aegypti 1 hour % KD
Outline: (§1)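 Wells coated with ethanolic compound solution at a defined concentration and dried; five non-blood-fed adult female Aedes aegypti or Anopheles stephensi (2-5 days old) added per well, fed 10% sucrose. Knockdown scored after 1 hour, averaged over replicates where run.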

Anopheles stephensi [1] = test: 12 well plate knockdown test; conditions: 1 h, read-out: Anopheles stephensi 1 hour % KD
Outline: as §1

female mosquitoes = test: Tunnel study based on WHOPES tunnel tests with Hemotek membrane feeding device; conditions: for mortality at 10 mg/m2: 24 h
Method: Based on the “WHOPES tunnel tests” (described at http://apps.who.int/iris/bitstream/10665/80270/1/9789241505277_eng.pdf), except that live guniea pig baits were replaced with a Hemotek membrane feeding device, filled with blood and kept constant at 37° C. to mimic a human host. All tests were done under standardised laboratory controlled conditions (27° C.+2° C. under subdued light). The tunnel apparatus was a 60×30×30 cm glass case open at each end and the floor was lined with wet blue roll in order to maintain humidity. A 30×30×30 cm cage, covered in untreated netting, was placed at the release end. The test nets were cut to 25×25 cm squares and fitted into cardboard frames that allow a 20×20 cm area to be exposed. Nine holes, 1 cm in diameter, were made in the netting in the pattern specified in the WHOPES test. The frames were then fitted into the tunnel one third of the way down its length. A Hemotek device, filled with blood and kept constant at 37° C. to mimic a human host, was placed in the smaller area of the glass tunnel behind the test netting, and the end of the tunnel closed with a netting screen. A human sat at the Hemotek end of the tunnels for the duration of the test. At the start of the test (13.30-14.00), 100 female mosquitoes (non-blood fed, aged 5-8 days) were introduced into the cage. Mosquitoes are free to fly in the tunnel but have to make contact with the piece of netting and locate the holes in it before passing through to reach the bait. After 7 hours (20.30-21.00) the mosquitoes were counted in each section of the tunnel. The number of mosquitoes knocked down and blood fed were recorded. Blood-feeding inhibition was assessed by comparing the proportion of blood-fed females (alive or dead) in treated and control tests. Four tunnels were run simultaneously each day, with one control containing untreated netting included with all runs. Three replicates were carried out per treatment.
(§2) In case of multiple tests, the mean value is reported.

adult female mosquitoes = test: Bottle assay based on CDC bottle assay
Method: Based on the “CDC bottle assay” (described at http://www.cdc.gov/malaria/resources/pdf/fsp/ir_manual/ir_cdc_bioassay_en.pdf) 1 ml of ethanol containing a test compound at a defined concentration was added to a 250 ml glass bottle and the bottles were placed on a rolling table to coat the inner surfaces as the solvent evaporated. Once dry, twenty five non-blood fed adult female mosquitoes of the appropriate species and strains (each three day old) were aspirated from the stock culture and gently blown into the exposure bottles. The lid of the bottle was replaced and the bottle placed upright out of direct sun light under standard culture conditions, nominally 28° C. and 60-80% relative humidity.
A stopwatch was started, and the assessment of the knock-down were made after 15 mins and 60 minutes. A mosquito was said to be knocked down if it was unable to stand, following the CDC definition. The bottles were replaced in an upright position when not being assessed.
After one hour the mosquitoes were carefully removed from the bottle with an aspirator and placed in a recovery cup. The mosquitoes were supplied with a 10% sucrose solution on a cotton wool bung, and stored under culture conditions. Assessments of the mortality were made after 24 hours and 48 hours (B15).
Each treatment was replicated a minimum of four times, with the mean knockdown or mortality recorded. In each study, a set of bottles was infested with a known insecticide susceptible strain of mosquitoes from the same genera as the resistant strains.

Anopheles stephensi [2] = test: 6 well plate test, knockdown after 1 hour and mortality after 24 and 48 hours; parameters: KD: unit not given here; conditions: for KD: after 1 hour
Method: The individual wells of six (6) well tissue culture plates were treated with […] of an ethanol solution containing a test compound at a defined concentration. Once the deposits were dry, ten non-blood fed adult female Anopheles stephensi (between two to five day old) were added to each well, and sustained with a 10% sucrose solution in a cotton wool plug. Assessment of the knockdown after 1 hour (Tables B1-B10), and mortality after 24 and 48 hours (Tables B1-B4) was carried out.
as §2

[3] = Table B1, Comp. (I.3) alone 0.1 ppm
[4] = Table B2, Comp. (I.3) alone 0.5 ppm
[5] = Table B3, Comp. (I.3) alone 0.5 ppm
[6] = Table B4, Comp. (I.3) alone 0.5 ppm

Q: With `NC(=O)c1cnccc1C(F)(F)F` [I.3] as the compound, how does the pest or weed control at 0.2 ppm (Aedes aegypti; Rate 0.2 PPM) read?
A: 100%

Q: And the pest or weed control at 2 ppm (Aedes aegypti; Rate 2 PPM)?
A: 100%

Q: And the pest or weed control at 20 ppm (Aedes aegypti; Rate 20 PPM)?
A: 100%

Q: And the pest or weed control at 200 ppm (Aedes aegypti; Rate 200 PPM)?
A: 100%

Q: What about the pest or weed control at 0.2 ppm (Anopheles stephensi [1]; Rate 0.2 PPM) of the same compound?
A: 20%

Q: What about the pest or weed control at 2 ppm (Anopheles stephensi [1]; Rate 2 PPM) of the same compound?
A: 20%

Q: And the pest or weed control at 20 ppm (Anopheles stephensi [1]; Rate 20 PPM)?
A: 100%

Q: What about the pest or weed control at 200 ppm (Anopheles stephensi [1]; Rate 200 PPM) of the same compound?
A: 100%

Q: What about the mortality at 10 mg/m2 (female mosquitoes; Table B11, Rate 10 mg/m2, 24 hours, read-out: % Mortality) of the same compound?
A: 68%

Q: And the mortality at 10 mg/m2 (female mosquitoes; Table B13, 10 mg/m2, read-out: % 24 hour mortality)?
A: 72.2%

Q: What about the mortality at 10 mg/m2 (female mosquitoes; Table B14, 10 mg/m2, read-out: % 24 hour mortality) of the same compound?
A: 68%

Q: And the “% Blood fed” value (female mosquitoes; Table B11, Rate 10 mg/m2)?
A: 3%

Q: And the “% 1 hour KD” value (female mosquitoes; Table B12, 10 mg/m2)?
A: 41.24%

Q: What about the “% Blood fed” value (female mosquitoes; Table B12, 10 mg/m2) of the same compound?
A: 3.09%

Q: And the “% Through net” value (female mosquitoes; Table B12, 10 mg/m2)?
A: 9.28%

Q: And the “% Blood fed” value (female mosquitoes; Table B13, 10 mg/m2)?
A: 18.56%

Q: And the “% Through net” value (female mosquitoes; Table B13, 10 mg/m2)?
A: 22.68%

Q: And the “% Blood fed” value (female mosquitoes; Table B14, 10 mg/m2)?
A: 2.9%

Q: And the “24 hour % mort” value (adult female mosquitoes; Table B15, rates not given)?
A: 0%

Q: What about the “48 hour % mort” value (adult female mosquitoes; Table B15, rates not given) of the same compound?
A: 0%

Q: What about the “% 1 hour KD” value (adult female mosquitoes; Table B15, rates not given) of the same compound?
A: 86.66%

Q: What about the “% 1 hour KD” value (adult female mosquitoes; Table B16, 10ug/bottle) of the same compound?
A: 100%

Q: And the “% 24 hour mortality” value (adult female mosquitoes; Table B16, 10ug/bottle)?
A: 0%

Q: And the 24 hr mort (Anopheles stephensi [2]; [3])?
A: 0.0

Q: What about the 48 hr mort (Anopheles stephensi [2]; [3]) of the same compound?
A: 0.0

Q: What about the KD (Anopheles stephensi [2]; [3]) of the same compound?
A: 23.3

Q: What about the 24 hr mort (Anopheles stephensi [2]; [4]) of the same compound?
A: 7.0

Q: What about the 48 hr mort (Anopheles stephensi [2]; [4]) of the same compound?
A: 10.0

Q: What about the KD (Anopheles stephensi [2]; [4]) of the same compound?
A: 60.0

Q: What about the 24 hr mort (Anopheles stephensi [2]; [5]) of the same compound?
A: 0.0

Q: And the 48 hr mort (Anopheles stephensi [2]; [5])?
A: 0.0

Q: What about the KD (Anopheles stephensi [2]; [5]) of the same compound?
A: 73.0

Q: And the 24 hr mort (Anopheles stephensi [2]; [6])?
A: 2.5

Q: And the 48 hr mort (Anopheles stephensi [2]; [6])?
A: 2.5

Q: What about the KD (Anopheles stephensi [2]; [6]) of the same compound?
A: 17.5

Q: What about the “knockdown after 1 hour” value (Anopheles stephensi [2]; Table B10, Compound (I.3) alone 0.5 ppm) of the same compound?
A: 0.0
